# Paper PMC11707430, “Novel antibiotics against Staphylococcus aureus without detectable resistance by targeting proton motive force and FtsH” (MedComm, 2025)
# Key:
# Human RBCs = assay: Red blood cell (RBC) lysis assay; assay type: cell-based; settings: 1 h
# Procedure: Red blood cell (RBC) lysis assay. Human RBCs (Hemo Pharmaceutical and Biological Co.) were suspended in 1× PBS and diluted to a final concentration of 4% (vol/vol). The RBCs suspension was then incubated with serially diluted compounds at 37°C for 1h. Then, the supernatant was collected by centrifugation and the absorbance at 570 nm […]) was measured. Triton X-100 (0.1%, vol/vol) and DMSO (1%, vol/vol) were served as positive and negative controls, respectively^16.
# TA 97a = assay: Ames test; assay type: cell-based, Salmonella typhimurium
# Procedure: (§1) Ames test. Genotoxicity of the compounds was determined by Ames Kit (IPHASE, Beijing, China) containing Salmonella typhimurium (TA97a, TA98, TA100, and TA1535) and E. coli WP2 uvrA (pKM101). Diclofenac and 2-aminofluorene were used as positive controls for TA97a and TA98. Methyl methanesulfonate and 2-aminofluorene were used as positive controls for TA100. Methyl methanesulfonate and 2-aminoanthracene were used as positive controls for WP2 uvrA (pKM101). NaN3 and 2-aminoanthracene were used as positive controls for TA1535. The bottom and top layer culture medium, and S9 mixed solution were prepared according to the manufacturer’s instructions. After incubation at 37℃ for 48h, the colonies were counted.
# TA 100 = assay: Ames test; assay type: cell-based, Salmonella typhimurium
# Procedure: as §1
# TA 98 = assay: Ames test; assay type: cell-based, Salmonella typhimurium
# Procedure: as §1
# TA 1535 = assay: Ames test; assay type: cell-based, Salmonella typhimurium
# Procedure: as §1
# [1] = In vivo toxicity analysis; set-up: species or system ICR mice; settings: acute, i.p. 30 mg/kg, 24 h
# Procedure: In vivo toxicity analysis. For acute in vivo toxicity determination, specific ICR female mice (N = 6 per group) were randomly divided into 3 groups. The mice were intraperitoneally injected with EL+ ethanol (vehicle group), or 30 mg/kg of […]=0546 or STK848198. Twenty-four hours post-administration, blood samples were collected from the ophthalmic venous plexus and the hematological parameters of white blood cell count (WBC), neutrophil ratio (N%), red blood cell count (RBC), hemoglobin levels (HGH), and platelet count (PLT) were measured. Meanwhile, serum samples were also collected by centrifuged at 4000 rpm for 10 min. And the biomarkers of alanine aminotransferase (ALT), urea nitrogen (BUN), and creatine kinase (CK) for liver, kidney and heart function monitoring, respectively, were also analyzed. Then, the mice were euthanized, and the organs of heart, liver, spleen, lungs and kidneys were removed and fixed in 4% neutral paraformaldehyde for Hematoxylin and eosin (H&E) staining. In addition, for 7-day in vivo toxicity detection, specific ICR female mice (N=5 per group) were intraperitoneally injected with 30 mg/kg of […]=0546 or STK848198 every day for a total of 7 days. The body weight was monitored, and the blood samples and organs were also collected and analyzed as described above^43.
# S. aureus ATCC 43300 = assay: Consecutive resistance inducing assay; assay type: cell-based; settings: sub-MIC (1/2×MIC), after 20 days of treatment
# Procedure: Resistance inducing assay. Consecutive and one-step resistance experiments were performed to assess the resistance-inducing ability of the compounds against S. aureus. For consecutive resistance assay, the MICs of compounds and ciprofloxacin (CIP) were determined on the first day. […] […] […] And the antimicrobial activity of the compounds against the CIP-induced strains were assessed by microdilution assay as described above. For one-step resistance assay, overnight cultured S. aureus was adjusted to a final concentration of approximately OD630=0.5 with sterile saline. One hundred microliters of the bacterial suspension were uniformly spread in pre-prepared MH agar plates containing a specific concentration of compounds. Rifampicin (RFP) was used as a positive control. The viable cells were counted on the plates after incubation at 37°C for 48h. The frequency of spontaneous drug resistance mutation was defined as the ratio of the number of resistant CFU counts to the initial CFU counts^3.
smiles,measurement,setting,value
Cc1nc2c(-c3ccc(Cl)cc3)cnn2c(O)c1Cc1ccccc1 [STK848198],hemolysis activity,Human RBCs,No hemolysis activity
same,CFU(x±SD),"TA 97a; +S9, 25 μg/well",6±5 CFU
same,Fold Change,"TA 97a; +S9, 25 μg/well",0.3
same,CFU(x±SD),"TA 97a; +S9, 50 μg/well",6±2 CFU
same,Fold Change,"TA 97a; +S9, 50 μg/well",0.2
same,CFU(x±SD),"TA 97a; +S9, 100 μg/well",4±4 CFU
same,Fold Change,"TA 97a; +S9, 100 μg/well",0.2
same,CFU(x±SD),"TA 97a; +S9, 200 μg/well",4±1 CFU
same,Fold Change,"TA 97a; +S9, 200 μg/well",0.2
same,CFU(x±SD),"TA 97a; +S9, 400 μg/well",5±2 CFU
same,Fold Change,"TA 97a; +S9, 400 μg/well",0.2
same,CFU(x±SD),"TA 97a; -S9, 25 μg/well",14±2 CFU
same,Fold Change,"TA 97a; -S9, 25 μg/well",0.6
same,CFU(x±SD),"TA 97a; -S9, 50 μg/well",11±1 CFU
same,Fold Change,"TA 97a; -S9, 50 μg/well",0.4
same,CFU(x±SD),"TA 97a; -S9, 100 μg/well",8±2 CFU
same,Fold Change,"TA 97a; -S9, 100 μg/well",0.3
same,CFU(x±SD),"TA 97a; -S9, 200 μg/well",10±4 CFU
same,Fold Change,"TA 97a; -S9, 200 μg/well",0.4
same,CFU(x±SD),"TA 97a; -S9, 400 μg/well",4±3 CFU
same,Fold Change,"TA 97a; -S9, 400 μg/well",0.2
same,CFU(x±SD),"TA 100; TA 100, +S9, 25 μg/well",8 ±2 CFU
same,Fold Change,"TA 100; TA 100, +S9, 25 μg/well",0.2
same,CFU(x±SD),"TA 100; TA 100, +S9, 50 μg/well",7 ±1 CFU
same,Fold Change,"TA 100; TA 100, +S9, 50 μg/well",0.2
same,CFU(x±SD),"TA 100; TA 100, +S9, 100 μg/well",9 ±3 CFU
same,Fold Change,"TA 100; TA 100, +S9, 100 μg/well",0.3
same,CFU(x±SD),"TA 100; TA 100, +S9, 200 μg/well",8±3 CFU
same,Fold Change,"TA 100; TA 100, +S9, 200 μg/well",0.2
same,CFU(x±SD),"TA 100; TA 100, +S9, 400 μg/well",8 ±2 CFU
same,Fold Change,"TA 100; TA 100, +S9, 400 μg/well",0.2
same,CFU(x±SD),"TA 100; TA 100, -S9, 25 μg/well",5±2 CFU
same,Fold Change,"TA 100; TA 100, -S9, 25 μg/well",0.2
same,CFU(x±SD),"TA 100; TA 100, -S9, 50 μg/well",6±2 CFU
same,Fold Change,"TA 100; TA 100, -S9, 50 μg/well",0.2
same,CFU(x±SD),"TA 100; TA 100, -S9, 100 μg/well",5±2 CFU
same,Fold Change,"TA 100; TA 100, -S9, 100 μg/well",0.1
same,CFU(x±SD),"TA 100; TA 100, -S9, 200 μg/well",9±3 CFU
same,Fold Change,"TA 100; TA 100, -S9, 200 μg/well",0.3
same,CFU(x±SD),"TA 100; TA 100, -S9, 400 μg/well",4±2 CFU
same,Fold Change,"TA 100; TA 100, -S9, 400 μg/well",0.1
same,CFU(x±SD),"TA 98; TA 98, +S9, 25 μg/well",6 ±1 CFU
same,Fold Change,"TA 98; TA 98, +S9, 25 μg/well",0.9
same,CFU(x±SD),"TA 98; TA 98, +S9, 50 μg/well",5 ±1 CFU
same,Fold Change,"TA 98; TA 98, +S9, 50 μg/well",0.8
same,CFU(x±SD),"TA 98; TA 98, +S9, 100 μg/well",4 ±1 CFU
same,Fold Change,"TA 98; TA 98, +S9, 100 μg/well",0.7
same,CFU(x±SD),"TA 98; TA 98, +S9, 200 μg/well",5 ±1 CFU
same,Fold Change,"TA 98; TA 98, +S9, 200 μg/well",0.7
same,CFU(x±SD),"TA 98; TA 98, +S9, 400 μg/well",4 ±0 CFU
same,Fold Change,"TA 98; TA 98, +S9, 400 μg/well",0.6
same,CFU(x±SD),"TA 98; TA 98, -S9, 25 μg/well",5±3 CFU
same,Fold Change,"TA 98; TA 98, -S9, 25 μg/well",0.8
same,CFU(x±SD),"TA 98; TA 98, -S9, 50 μg/well",5±1 CFU
same,Fold Change,"TA 98; TA 98, -S9, 50 μg/well",0.8
same,CFU(x±SD),"TA 98; TA 98, -S9, 100 μg/well",3±2 CFU
same,Fold Change,"TA 98; TA 98, -S9, 100 μg/well",0.5
same,CFU(x±SD),"TA 98; TA 98, -S9, 200 μg/well",1±2 CFU
same,Fold Change,"TA 98; TA 98, -S9, 200 μg/well",0.2
same,CFU(x±SD),"TA 98; TA 98, -S9, 400 μg/well",0±1 CFU
same,Fold Change,"TA 98; TA 98, -S9, 400 μg/well",0.1
same,CFU(x±SD),"TA 1535; TA 1535, +S9, 25 μg/well",2±1 CFU
same,Fold Change,"TA 1535; TA 1535, +S9, 25 μg/well",0.9
same,CFU(x±SD),"TA 1535; TA 1535, +S9, 50 μg/well",2±1 CFU
same,Fold Change,"TA 1535; TA 1535, +S9, 50 μg/well",0.9
same,CFU(x±SD),"TA 1535; TA 1535, +S9, 100 μg/well",2±1 CFU
same,Fold Change,"TA 1535; TA 1535, +S9, 100 μg/well",1
same,CFU(x±SD),"TA 1535; TA 1535, +S9, 200 μg/well",2±1 CFU
same,Fold Change,"TA 1535; TA 1535, +S9, 200 μg/well",0.7
same,CFU(x±SD),"TA 1535; TA 1535, +S9, 400 μg/well",2±1 CFU
same,Fold Change,"TA 1535; TA 1535, +S9, 400 μg/well",0.7
same,CFU(x±SD),"TA 1535; TA 1535, -S9, 25 μg/well",2±1 CFU
same,Fold Change,"TA 1535; TA 1535, -S9, 25 μg/well",0.9
same,CFU(x±SD),"TA 1535; TA 1535, -S9, 50 μg/well",2±2 CFU
same,Fold Change,"TA 1535; TA 1535, -S9, 50 μg/well",1
same,CFU(x±SD),"TA 1535; TA 1535, -S9, 100 μg/well",2±2 CFU
same,Fold Change,"TA 1535; TA 1535, -S9, 100 μg/well",1
same,CFU(x±SD),"TA 1535; TA 1535, -S9, 200 μg/well",1±1 CFU
same,Fold Change,"TA 1535; TA 1535, -S9, 200 μg/well",0.6
same,CFU(x±SD),"TA 1535; TA 1535, -S9, 400 μg/well",1±1 CFU
same,Fold Change,"TA 1535; TA 1535, -S9, 400 μg/well",0.6
same,"erythrocyte, leukocyte, platelet parameters, ALT, BUN, CK vs vehicle",[1],No significant difference
same,MIC increasement after sub-MIC treatment,S. aureus ATCC 43300,0 fold
